Laboratory results as given in PubChem BioAssay (NCI).
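Values below derive from 48-hour exposures of cells grown in 96-well plates, with endpoints linearly interpolated between the two concentrations bracketing the appropriate inhibition level. The concentration for 50% growth inhibition is given as GI50. TGI marks complete inhibition of growth.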

How the values were obtained:
Assay in all cases: NCI-60 cell line screen, 48 h
IGROV1 ovarian = system: IGROV1 ovarian
SK-MEL-28 melanoma = system: SK-MEL-28 melanoma
RPMI-8226 leukemia = system: RPMI-8226 leukemia
SK-OV-3 ovarian = system: SK-OV-3 ovarian
KM12 colon = system: KM12 colon
RXF 393 renal = system: RXF 393 renal
A549 NSCLC = system: A549 NSCLC
SF-539 CNS = system: SF-539 CNS
OVCAR-8 ovarian = system: OVCAR-8 ovarian
NCI-H522 lung = system: NCI-H522 lung

Row | Structure (SMILES) | GI50 (IGROV1 ovarian) | TGI (IGROV1 ovarian) | GI50 (SK-MEL-28 melanoma) | TGI (SK-MEL-28 melanoma) | GI50 (RPMI-8226 leukemia) | TGI (RPMI-8226 leukemia) | GI50 (SK-OV-3 ovarian) | TGI (SK-OV-3 ovarian) | GI50 (KM12 colon) | TGI (KM12 colon) | GI50 (RXF 393 renal) | TGI (RXF 393 renal) | GI50 (A549 NSCLC) | TGI (A549 NSCLC) | GI50 (SF-539 CNS) | TGI (SF-539 CNS) | GI50 (OVCAR-8 ovarian) | TGI (OVCAR-8 ovarian) | TGI (NCI-H522 lung) | GI50 (NCI-H522 lung)
1 | NC(=O)c1ccc(-c2c3ccccc3cc3c2ccc2ccccc23)cc1 | 7.6 µM | > 100 µM | 4390 nM | 36 µM | 5.6 µM | 40.7 µM | 4.02 µM | 24.2 µM | 1320 nM | 15.2 µM | 2120 nM | 7.48 µM | 4.7 µM | 24.7 µM | 3590 nM | 15.5 µM | 6.51 µM | 36.3 µM |  | 
2 | c1ccc(CN(Cc2ccccn2)Cn2cccn2)nc1 |  |  |  | > 100 µM |  | 75.6 µM |  | > 100 µM |  | > 100 µM |  | > 100 µM |  | > 100 µM |  | > 100 µM |  | > 100 µM | > 100 µM | 
3 | CC(=O)OCC1OC(O[C@@H]2C[C@H]3C(C)(C)[C@H](OC(C)=O)CC[C@]3(C)[C@H]3CC[C@@H]4[C@]5(CC[C@@]4(C)[C@@]32C)O[C@@H]([C@H](O)C(C)(C)O)C[C@@H]5C)C(O)C(O)C1O (some centres undefined) | 9.57 µM | 21.6 µM | 10200 nM | 24 µM | 3.37 µM | 19 µM | 7.95 µM | 20.7 µM | 2000 nM | 7.68 µM |  | 16.1 µM | 5.1 µM | 18.3 µM |  |  | 9.35 µM | 23.7 µM | 21.2 µM | 7100 nM
4 | COc1cc([N+](=O)[O-])c2ncccc2c1O | 4.51 µM | 25.5 µM | 2770 nM | 7.78 µM | 27.7 µM | > 100 µM | 3.36 µM | 14.4 µM | 2180 nM | 7.02 µM | 10600 nM | 30.1 µM | 0.32 µM | 1.74 µM | 2590 nM | 9.41 µM | 8.71 µM | > 100 µM |  | 
5 | COc1ccc2c(c1)[n+]([O-])c(-c1ccc(Cl)c(Cl)c1)c(N)[n+]2[O-] |  | 93.2 µM |  | > 100 µM |  | > 100 µM |  | > 100 µM |  | > 100 µM |  |  |  | > 100 µM |  | 68.6 µM |  | > 100 µM | 27.6 µM | 
6 | N#CCc1nc2c(s1)C(=O)c1ccccc1C2=O |  | 17.3 µM |  | 32.8 µM |  | 46.6 µM |  | > 100 µM |  | 36 µM |  | 49.4 µM |  |  |  | 28 µM |  | 22.6 µM | 29.9 µM | 
7 | NC(=O)Cn1c(=O)[nH]c(=O)c2[nH]cnc21 |  | > 100 µM |  | > 100 µM |  |  |  | > 100 µM |  | > 100 µM |  | > 100 µM |  | > 100 µM |  | > 100 µM |  | > 100 µM | > 100 µM | 
8 | OCC(O)C(OC1OC(CO)C(O)C(O)C1O)c1nn(-c2ccc(F)cc2)c2nc3cc(Cl)c(Cl)cc3cc12 (centres undefined) |  |  |  | > 100 µM |  | > 100 µM |  | > 100 µM |  | > 100 µM |  | > 100 µM |  |  |  | > 100 µM |  | > 100 µM | > 100 µM | 
9 | NC(=O)c1ccc(NC(=O)c2oc3ccccc3c2-c2cnn(-c3ccccc3)c2)cc1 |  |  | > 100000 nM | > 100 µM |  |  | > 100 µM | > 100 µM | > 100000 nM | > 100 µM | 1330 nM | 6.03 µM |  |  | > 100000 nM | > 100 µM | > 100 µM | > 100 µM | > 100 µM | > 100000 nM
10 | O=C1CCC(c2ccccc2)(c2ccccc2)CC1 |  | > 100 µM |  | > 100 µM |  | > 100 µM |  | > 100 µM |  | > 100 µM |  | > 100 µM |  | > 100 µM |  |  |  | > 100 µM | > 100 µM | 
11 | C/C(=N\n1c(N)c(C#N)c(-c2ccc(Cl)cc2)c(C#N)c1=O)c1cccnc1 | > 100 µM | > 100 µM | > 100000 nM | > 100 µM | > 100 µM | > 100 µM | > 100 µM | > 100 µM | > 100000 nM | > 100 µM |  |  | > 100 µM | > 100 µM |  |  | > 100 µM | > 100 µM |  | 
12 | Cc1ccc(C)c(NC(=O)CCc2n[nH]c(=S)o2)c1 |  | > 100 µM |  | > 100 µM |  |  |  |  |  | > 100 µM |  | > 100 µM |  | > 100 µM |  | > 100 µM |  | > 100 µM | > 100 µM | 
13 | O=C(O)CCN1C(=O)/C(=C/C(Cl)=C/c2ccccc2)SC1=S | 2.42 µM | 6.98 µM | 2110 nM | 5.33 µM |  |  | 7.54 µM | 20.1 µM | 2010 nM | 4.64 µM | 1690 nM | 3.38 µM | 3.52 µM | 15.1 µM | 2670 nM | 7.12 µM | 3.27 µM | 22.2 µM | 5.66 µM | 2070 nM
14 | C=C(C)[C@@H]1CC[C@]2(C#N)CC[C@]3(C)[C@H](CC[C@@H]4[C@@]5(C)CCCNC(C)(C)[C@@H]5CC[C@]43C)[C@@H]12 | 1.82 µM | 3.47 µM | 1920 nM | 3.5 µM |  |  | 11.1 µM | 25.4 µM | 1660 nM | 3.23 µM | 1700 nM | 3.16 µM | 1.94 µM | 3.77 µM | 1670 nM | 3.11 µM | 1.84 µM | 3.38 µM | 3.61 µM | 1930 nM
15 | O=C(O)c1oc2ccc([N+](=O)[O-])c3c2c1CCC3 |  |  |  | > 100 µM |  |  |  |  |  | > 100 µM |  | > 100 µM |  | > 100 µM |  | > 100 µM |  | > 100 µM | > 100 µM | 
16 | CCOC(=O)c1cc2cc([N+](=O)[O-])ccc2oc1=O |  | > 100 µM |  | > 100 µM |  | > 100 µM |  |  |  | > 100 µM |  | > 100 µM |  | > 100 µM |  | > 100 µM |  | > 100 µM | > 100 µM | 
17 | COCCn1cc(-c2csc(-c3c[nH]c4ccc(F)cc34)n2)c2cccnc21 | 3.49 µM | > 100 µM | 7730 nM | > 100 µM |  |  |  |  | 1770 nM | > 100 µM | 5910 nM | > 100 µM | 4.51 µM | > 100 µM | 8860 nM | > 100 µM | 4.1 µM | > 100 µM | > 100 µM | 2190 nM
18 | N#CC(C#N)=C/C=C/c1cccc([N+](=O)[O-])c1 | 0.71 µM | 9.32 µM | 1380 nM | 3.23 µM | 1.59 µM | 9.6 µM | 2.62 µM | 9.2 µM | 1280 nM | 3.2 µM | 800 nM | 2.06 µM | 2.29 µM | 16.8 µM | 2550 nM | 18.4 µM | 0.329 µM | 1.36 µM |  | 
19 | Cc1ccc(NC(=O)CCC(=O)C(C#N)c2ccc(Cl)cc2)cc1C (centres undefined) |  | > 100 µM |  | > 100 µM |  | > 100 µM |  |  |  | > 100 µM |  | > 100 µM |  | > 100 µM |  | > 100 µM |  | > 100 µM | > 100 µM | 
20 | O=C1C=Cc2noc3cccc1c23 |  | 29.4 µM |  | 17.6 µM |  |  |  | 32.1 µM |  | 19.1 µM |  | 5.67 µM |  | 38.7 µM |  | 30.2 µM |  | 8.13 µM | 3.04 µM | 
21 | C/C(=N\NC(=S)Nc1ccc([N+](=O)[O-])cc1S(=O)(=O)O)c1ccccn1 |  | > 100 µM |  | > 100 µM |  | > 100 µM |  |  |  | > 100 µM |  | 86.1 µM |  | > 100 µM |  | > 100 µM |  | > 100 µM |  | 
22 | C(=C1/CCCCC([n+]2ccccc2)=N1)/c1ccccc1 |  |  |  | > 100 µM |  | > 100 µM |  | > 100 µM |  |  |  | > 100 µM |  | > 100 µM |  | > 100 µM |  | > 100 µM | > 100 µM | 
23 | CCCCCCCCSC(SCCCCCCCC)=C1C(=O)N(c2ccccc2)N=C1C |  | > 100 µM |  | > 100 µM |  | 61.9 µM |  | > 100 µM |  | > 100 µM |  | > 100 µM |  | > 100 µM |  |  |  | > 100 µM | 57.1 µM | 
24 | COCCOCCOCCOCCOc1ccc2c(c1)C(=O)c1nc3ncccc3c(=O)n1-2 |  |  | 765 nM | 2.03 µM | 1.86 µM | 4.94 µM | 2.81 µM | 6.99 µM | 1220 nM | 2.71 µM | 2650 nM | 9.26 µM | 0.465 µM | 2.41 µM | 551 nM | 1.71 µM | 1.57 µM | 6.89 µM | 3.3 µM | 1670 nM
25 | O=[N+]([O-])C(=C(c1ccccc1)c1ccccc1)[N+](=O)[O-] |  | 23.2 µM |  | 20.1 µM |  | 6.43 µM |  |  |  | 30.2 µM |  | 6.71 µM |  | 51.3 µM |  | 26.5 µM |  | 21.5 µM | 31.3 µM | 
26 | Cc1ccc(C)c2sc3cc(=O)ccc-3nc12 |  | > 100 µM |  | > 100 µM |  |  |  | > 100 µM |  | > 100 µM |  |  |  | > 100 µM |  | > 100 µM |  | > 100 µM | 67.6 µM | 
27 | CC(C)(C)c1ccc(C(O)(c2ccc(C(C)(C)C)cc2)c2ccc(C(C)(C)C)cc2)cc1 |  | > 100 µM |  | > 100 µM |  | > 100 µM |  | > 100 µM |  | > 100 µM |  |  |  | > 100 µM |  | > 100 µM |  | > 100 µM | > 100 µM | 
28 | COc1ccc(/C=C/CO)cc1OC |  | > 100 µM |  | > 100 µM |  | > 100 µM |  | > 100 µM |  | > 100 µM |  | > 100 µM |  | > 100 µM |  | > 100 µM |  | > 100 µM |  | 
